Test results from patent US9402849B2, “Composition for moderating alcohol metabolism and for reducing the risk of alcohol induced diseases” (Tima Foundation, priority 2005, dated 2016).
“And” between values parts separate entries of the source, which are not always exact repeats. Identical values can stand only once.

How the values were obtained:
YAC-1 cells = assay: NK cytotoxic activity of nude mouse splenocytes, short-term 51Cr-release assay; assay type: in vivo; conditions: for NK activity, % Control: EtOH versus control nude mice
Protocol: A short-term ^51Cr-release assay was used to determine the natural killer (NK) cytotoxic activity. Mice were divided in following 3 groups; control, ethanol administration, and Supplement and ethanol administration. Twenty, four hours after the ethanol administration, splenocytes of the nude mouse were separated as single cell suspension. Target YAC-1 cells (1×10^7) were labeled by incubation with 200 μCi of ^51Cr for 2 hours at 37C. After being washed and then incubated for 2 hours at 37° C., the cells were supplemented in RPMI1640 medium. 20 μl of the labeled target cells and 100 μl of effector cells were mixed into a 96-well microliter plate (Sumitomo Bakelite Co., Ltd., Tokyo, Japan) at various effector/target cell ratios. After 4 hours of incubation, the plates were centrifuged and the radioactivity of the supernatant was measured by a gamma-counter. The percent of cytotoxicity was calculated as (experimental group release−spontaneous release/total release−spontaneous release). Statistical analysis of the results was conducted by t^2 test, and […] was defined as the level of significance.

RPMI4788 cells = assay: Alcohol enhanced pulmonary metastasis of RPMI4788 cells in nude mice (nodules on lung surface); assay type: in vivo
Protocol: Ingredients of Supplement except Coenzyme Q10 were purchased from Sigma Aldrich Japan (Tokyo, Japan). Ten gram of dextrose, 1.0 gram of Vitamin C, 1.5 gram of L-glutamine, 500 mg of cysteine, 40 mg of riboflavin, 100 mg of succinic acid, 100 mg of fumaric acid, and 10 mg of niacin were dissolved in 100 ml of distilled water (Supplement Solution). One hundred mg of Coenzyme Q10 (Jarrow Formulas, Los Angels, Calif., USA) was dissolved in 14 ml of sesame oil.
Male, 6-week-old nude mice of BALB/cA-jcl-nu/nu class were purchased (Clea Japan Inc., Shizuoka, Japan) and allowed to acclimate for one week prior to the study. During the experiment the mice were maintained at a temperature of 23° C., 50% humidity and a specific-pathogen-free (SPF) condition.
RPM14788 cells derived from human colorectal cancer generate pulmonary metastasis in nude mouse (Moore G E & Koike A (1964), Cancer January, 17: 11-20; Kondo H. et al. (1987), Jpn J Cancer Res (Gann) 78, 12: 1400-1408). The cell line was subcultured in tissue culture flasks with culture medium of RPMI1640 solution (Nikken Biomedical Laboratory, Kyoto, Japan) supplemented with 10% Fetal Bovine Serum. (FBS) (Hycione Laboratories Inc., Logan, Utah) at 37° C., in an atmosphere of 100% humidity, 5% CO2 and 95% air. Following isolation of the cultured cells by 0.02% EDTA, a cell suspension was prepared using PBS of 0.01M; trypan blue staining confirmed cell viability over 98%.
To produce lung metastases, nude mice were injected cell suspension of 5×10^4/0.1 ml into tail vein. Twenty-eight days after the injection, all metastatic nodules on the lung surface were counted. The lung was fixed in 10% neutral formaldehyde and embedded in paraffin. Sections were stained with Hematoxylin-Eosin and examined histologically.
For testing the supplement, 320 μl of supplement solution and 50 μl of Co-Q10 dissolved sesame oil per mouse were administrated to the stomach by oral metal tube. For assaying the effects of Supplement+EtOH, one hour after the supplement administration, 7.0 ml/kg of ethanol were injected into the peritoneal cavity. Then 1 hour after the ethanol injection, 5×10^4/100 μl of RPM14788 cells were injected into the tail vein. The nude mice were sacrificed 28 days after the cell injection and the metastatic nodules on the lung surface were counted.

For `CCO` [ETOH, ethanol], the NK activity (YAC-1 cells; EtOH) was 11.20%, the “NK activity, % Control” value (YAC-1 cells; listed as EtOH) was 45.5% and the “NK activity, % Control” value (YAC-1 cells; listed as Ethanol) was 45.5%. The “Average cont (51Cr release)” value (YAC-1 cells; EtOH, splenocytes 24 h after ethanol) was 568.6, the “Number of Metastatic nodules on the lung surface, Average” value (RPMI4788 cells; ETOH + 4788, 16 mice) was 42.25 and the “Number of Metastatic nodules on the lung surface, Total” value (RPMI4788 cells; ETOH + 4788, 16 mice) was 676. For the same compound, the “Number of Metastatic nodules on the lung surface” value (RPMI4788 cells; ETOH + 4788, single mouse, ethanol 7.0 ml/kg i.p. 1 h before cells, 28 days) was 75 and 58 and 69 and 62 and 18 and 19 (2×) and 21 (2×) and 24 and 20 (2×) and 48 and 70 and 64 and 68, the “Total metastatic nodules minus 4788” value (RPMI4788 cells; ETOH + 4788, total minus control total) was 251 and the “Enhancement of metastatic potential of 4788 cell line” value (RPMI4788 cells; Ethanol + 4788 versus control) was “approximately 60%”.
